The results in this text go back to patent US9481682B2, “Substituted benzamides and substituted pyridinecarboxamides as Btk inhibitors” (MERCK SHARP & DOHME CORP., priority 2013, dated 2016).

In experiment [1] the target is hBTK (recombinant full-length BTK) (Homo sapiens (Human), UniProt Q06187). Description: BTK enzymatic activity, LANCE TR-FRET assay. It is filed as biochemical. Conditions: 50 pM hBTK, 2 μM biotin-A5-peptide, 25 μM ATP; 60 minute compound & enzyme incubation. On the procedure: BTK enzymatic activity was determined with the LANCE (Lanthanide Chelate Excite) TR-FRET (Time-resolved fluorescence resonance energy transfer) assay. […] Phosphorylation reactions were allowed to proceed for 120 minutes. […] After 60 minutes incubation with detection reagents, reaction plates were read on a PerkinElmer EnVision plate reader using standard TR-FRET protocol. […] IC50 values were determined by 4 parameter robust fit of TR-FRET ratio values vs. (Log10) compound concentrations.
Sequence of hBTK (recombinant full-length BTK) (Q06187 whole entry): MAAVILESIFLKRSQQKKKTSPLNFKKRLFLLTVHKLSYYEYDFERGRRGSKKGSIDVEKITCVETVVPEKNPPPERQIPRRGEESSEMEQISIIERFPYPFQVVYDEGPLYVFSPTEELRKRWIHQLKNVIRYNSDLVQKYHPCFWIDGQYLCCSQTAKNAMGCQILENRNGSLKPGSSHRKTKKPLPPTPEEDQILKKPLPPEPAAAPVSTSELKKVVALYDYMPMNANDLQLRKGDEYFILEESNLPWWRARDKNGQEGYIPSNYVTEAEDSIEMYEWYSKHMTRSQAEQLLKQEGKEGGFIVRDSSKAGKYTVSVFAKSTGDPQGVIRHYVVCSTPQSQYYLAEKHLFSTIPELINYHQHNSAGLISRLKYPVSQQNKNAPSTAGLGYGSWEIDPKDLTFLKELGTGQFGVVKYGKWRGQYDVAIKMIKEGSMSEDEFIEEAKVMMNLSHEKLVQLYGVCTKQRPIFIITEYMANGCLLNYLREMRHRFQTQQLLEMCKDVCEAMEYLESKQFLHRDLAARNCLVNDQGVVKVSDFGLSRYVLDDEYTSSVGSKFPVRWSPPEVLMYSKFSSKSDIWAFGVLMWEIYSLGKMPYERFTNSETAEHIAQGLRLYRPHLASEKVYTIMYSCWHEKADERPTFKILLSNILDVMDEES

Experiment [2] concerns HeLa cells. Description: [3H]Adenosine uptake functional cellular assay. The experiment is classed as cell-based. Conditions: accumulation of [3H]adenosine into HeLa cells, read-out: Adenosine uptake inhibition IC50. On the procedure: Compounds are also screened in an adenosine uptake functional cellular assay using the protocol described below. The adenosine uptake inhibition assay may be used to identify compounds with the potential for a negative cardiovascular side effect.
Adenosine uptake activity was determined by monitoring the accumulation of tritiated adenosine into HeLa cells (ATCC catalog #CCL-2) using a PMT-based radiometric detection instrument. […] These cells were incubated overnight at 37° C. in a humidified atmosphere with 5% (v/v) CO2. After this time the growth medium was removed and replaced with 40 μL assay medium comprising: Hanks balanced salts solution (HBSS; Thermo Fisher Catalog #SH30268.01)+5% (v/v) FBS. […] Following this incubation, 20 μL of 500 nM [^3H]adenosine (American Radiolabeled Chemicals Inc. […] The amount of radiolabel accumulation was then determined using a Perkin Elmer Topcount NXT microplate reader. In brief, HeLa cells adhere to the bottom of the Cytostar-T plate, uptake of [^3H]adenosine into these cells brings the radiolabel into sufficient proximity to excite the scintillant in the base of the plates. These events are captured by single PMT, time-resolved coincidence counting. IC50 values were determined by 4 parameter robust fit of counts per second values vs. (Log10) compound concentrations.

Setting [3] is: Homo sapiens, compound range 10 μM to 0.032 nM.

The structures appear in SMILES notation. Read-outs that look alike come from different tables or passages of the source.

In general, IC50 refers to the concentration that gives 50% inhibition. As to `Nc1nccn2c([C@@H]3CC[C@@H]4C[C@H](O)C(=O)N4C3)nc(-c3ccc(C(=O)Nc4cc(C(F)(F)F)ccn4)cc3)c12` [Example 72, 4-{8-amino-3-[(2S,6R,8aR)-2-hydroxy-3-oxooctahydroindolizin-6-yl]imidazo[1,5-a]pyrazin-1-yl}-N-[4-(trifluoromethyl)pyridin-2-yl]benzamide], the IC50 in experiment [1] worked out at 0.45 nM; in experiment [2] (setting [3]), 730 nM.

In the case of `CN1CC[C@H]2CC[C@H](c3nc(-c4ccc(C(=O)Nc5cc(C(F)(F)F)ccn5)cc4)c4c(N)nccn34)CN2C1=O` [Example 84, 4-(8-amino-3-((4aR,7S)-2-methyl-1-oxooctahydro-1H-pyrido[1,2-c]pyrimidin-7-yl)imidazol[1,5-a]pyrazin-1-yl)-N-(4-(trifluoromethyl)pyridin-2-yl)benzamide], the values for the IC50 in experiment [1] and in experiment [2] (compound range 10 μM to […]) were 3 nM and 155 nM, respectively.

For `Nc1nccn2c([C@H]3CC[C@H]4C[C@@H](O)C(=O)N4C3)nc(-c3ccc(C(=O)Nc4cc(C(F)(F)F)ccn4)cc3)c12` [Example 74, 4-{8-amino-3-[(2R,6S,8aS)-2-hydroxy-3-oxooctahydroindolizin-6-yl]imidazo[1,5-a]pyrazin-1-yl}-N-[4-(trifluoromethyl)pyridin-2-yl]benzamide], the figures for the concentration for half-maximal inhibition (IC50) in experiment [1] and in experiment [2] (setting [3]) were 4.6 nM and 1300 nM, respectively.

`COCCOc1cc(C(=O)Nc2cccc(C(F)(F)F)c2)ccc1-c1nc([C@@H]2CC[C@H]3CCC(=O)N3C2)n2ccnc(N)c12` [Example 199, 4-(8-amino-3-((6R,8aS)-3-oxooctahydroindolizin-6-yl)imidazo[1,5-a]pyrazin-1-yl)-3-(2-methoxyethoxy)-N-(3-(trifluoromethyl)phenyl)benzamide]: the IC50 came to 1.9 nM in experiment [1] and 7090 nM in experiment [2] (setting [3]).

With `NC(=O)c1cc(C(=O)Nc2cc(C(F)(F)F)ccn2)ccc1-c1nc([C@@H]2CC[C@H]3CCC(=O)N3C2)n2ccnc(N)c12` [Example 124, 4-{8-amino-3-[(6R,8aS)-3-oxooctahydroindolizin-6-yl]imidazo[1,5-a]pyrazin-1-yl}-N~1~-[4-(trifluoromethyl)pyridin-2-yl]benzene-1,3-dicarboxamide], the IC50 in experiment [2] (setting [3]) turned out to be 10000 nM.

`COc1cc(C(=O)Nc2cc(C(F)(F)F)ccn2)ccc1-c1nc([C@@H]2CC[C@H]3CN(C(=O)c4ccncc4)CC(=O)N3C2)n2ccnc(N)c12` [Example 85, 4-(8-amino-3-((7R,9aS)-2-isonicotinoyl-4-oxooctahydro-1H-pyrido[1,2-a]pyrazin-7-yl)imidazo[1,5-a]pyrazin-1-yl)-3-methoxy-N-(4-(trifluoromethyl)pyridin-2-yl)benzamide]: the IC50 in experiment [2] (setting [3]) was found to be 2780 nM.

Turning to `Nc1nccn2c([C@@H]3CC[C@H]4CCC(=O)N4C3)nc(-c3ccc(C(=O)Nc4cc(C(F)(F)F)ccn4)cc3OCCO)c12` [Example 200, 4-{8-amino-3-[(6R,8aS)-3-oxooctahydroindolizin-6-yl]imidazo[1,5-a]pyrazin-1-yl}-3-(2-hydroxyethoxy)-N-[4-(trifluoromethyl)pyridin-2-yl]benzamide], the IC50 in experiment [2] (setting [3]) was 5450 nM.

`CN1CC[C@@H]2CC[C@@H](c3nc(-c4ccc(C(=O)Nc5cc(C(F)(F)F)ccn5)cc4)c4c(N)nccn34)CN2C1=O` [Example 83, 4-(8-amino-3-((4aS,7R)-2-methyl-1-oxooctahydro-1H-pyrido[1,2-c]pyrimidin-7-yl)imidazol[1,5-a]pyrazin-1-yl)-N-(4-(trifluoromethyl)pyridin-2-yl)benzamide]: the concentration for half-maximal inhibition (IC50) in experiment [1] worked out at 0.092 nM; in experiment [2] (compound range 10 μM to […]), 124 nM.

Regarding `Nc1nccn2c([C@H]3CC[C@H]4CNCC(=O)N4C3)nc(-c3ccc(C(=O)Nc4cc(C(F)(F)F)ccn4)cc3)c12` [Example 57, 4-{8-amino-3-[(7S,9aS)-4-oxooctahydro-2H-pyrido[1,2-a]pyrazin-7-yl]imidazo[1,5-a]pyrazin-1-yl}-N-[4-(trifluoromethyl)pyridin-2-yl]benzamide], the IC50 in experiment [2] (setting [3]) was determined as 10000 nM.

In the case of `Cn1nc(NC(=O)c2ccc(-c3nc([C@@H]4CC[C@H]5CCC(=O)N5C4)n4ccnc(N)c34)c(OC3CNC3)c2)cc1C(F)(F)F` [Example 149, 4-{8-amino-3-[(6R,8aS)-3-oxooctahydroindolizin-6-yl]imidazo[1,5-a]pyrazin-1-yl}-3-(azetidin-3-yloxy)-N-[1-methyl-5-(trifluoromethyl)-1H-pyrazol-3-yl]benzamide], the IC50 in experiment [2] (setting [3]) turned out to be 10000 nM.
